Laboratory results taken from patent US20250333418A1, “PURINE COMPOUNDS, COMPOSITIONS COMPRISING THEM AND USES THEREOF” (Novo Nordisk A/S, priority 2022, published 2025).

Columns and labels:
[1] = target: T1, human CB1 receptor (Homo sapiens, UniProt P21554); test: bioSensAll GAPL-Gi2 BRET biosensor assay in HEK293 cells transfected with hCB1; test compound added before EC75-80 of agonist CP55,940 (0.1 nM); type: cell-based; settings: vs CP55,940 0.1 nM (EC75-80), read-out: CB1 wt Gi2 IC50
T1 construct: expressed in transfected cells; host or cells: HEK293
Experimental: (§1) Using polyethylenimine (PEI) transfection agent, HEK293 cells were transfected in suspension with the human CB1 receptor and one of the following bioSensAll® assays: GAPL-Gi2, or β-arrestin plasma membrane (PM) translocation biosensor (+GRK2). Cells were directly seeded in 96-well plates immediately following transfection.
(§2) Cells were incubated with coelenterazine (luciferase substrate) and different test compounds prior to the measurement of BRET signals.
(§3) Used in this project are i) Gα plasma membrane (GAPL) biosensors and the ii) β-arrestin plasma membrane translocation biosensor.
i) GAPL sensors are used to monitor the activation of heterotrimeric G proteins at the plasma membrane upon receptor stimulation. Specifically, these multimolecular BRET sensors detect the plasma membrane recruitment of proteins that interact with active Gα subunits in a G protein family-selective manner. G protein activation following receptor stimulation generally leads to an increase in the BRET signal.
(§4) HEK293 cells were maintained in Dulbecco's Modified Eagle Medium (DMEM) (Wisent; cat #319-030-CL: without sodium pyruvate, with 4.5 g/L glucose, without L-glutamine) supplemented with 1% penicillin-streptomycin (Wisent; cat #450-201-EL) and 2 or 10% fetal bovine serum (Wisent cat #090150).
(§5) HEK293 cells were co-transfected with hCB1 and one of the above-listed bioSensAll® assays. For each transfection condition: • the total amount of transfected DNA was kept constant at 1 μg per mL of cell culture to be transfected; whenever necessary, salmon sperm DNA (Invitrogen, cat #15632011) was used as ‘carrier’ DNA to supplement plasmid DNA (i.e., biosensor and receptor); • the PEI (polyethylenimine 25 kDa linear, PolyScience, cat #23966) to DNA ratio (ug:ug) was fixed at 3:1.
(§6) Transfections were carried out as follows: • DNA and PEI were first diluted separately in 150 mM NaCl. The volume of the diluent in each tube corresponds to 5% of the cell culture volume to be transfected. • Once DNA and PEI were diluted, the PEI-containing solution was added to the DNA solution and the DNA/PEI mixture immediately vortexed for 5 seconds. • The DNA/PEI mixture was incubated for at least 20 minutes at room temperature to allow for the formation of DNA/PEI complexes. • During the incubation, HEK293 cells were detached, counted and re-suspended in culture medium (composition specified above). • At the end of the incubation period, the DNA/PEI mixture was added to the cells. • Cells were finally distributed in 96-well plates (White Opaque 96-well/Microplates, Greiner, cat #655083 or CulturPlate-96, White Opaque 96-well Microplate, PerkinElmer, cat #6005688) at a density of 30,000 cells per well.
(§7) At 48 hours post-transfection: • Using 450-Select TS Biotek plate washer, culture medium was aspirated and replaced with 100 μL of Hank's Balanced Salt Solution buffer (HBSS) (Wisent, cat #319-067CL: without red phenol; with sodium bicarbonate, with calcium and magnesium, with HEPES) per well. • Plates were then incubated (equilibrated) at 37° C., 5% CO2 for 60 minutes. • Increasing doses of test compounds were then added to each well using the HP D300e digital dispenser (Tecan). All compounds were assayed at the following 12 concentrations (in nM) with each biosensor: 0.000, 0.013, 0.040, 0.120, 0.320, 0.960, 2.80, 8.00, 24.0, 70.0, 205 and 600. • Three to 5 minutes later, an assay-specific effective concentration (EC)75-80 of agonist CP55,940 (i.e., 0.1 nM and 100 nM for G[…]i2-GAPL or […]Arrestin2 (+GRK2) assay, respectively) was added to wells previously injected with test compound (i.e., previous step 3). […]

[2] = target: T1, human CB1 receptor; test: bioSensAll β-arrestin2 plasma membrane translocation (+GRK2) BRET biosensor assay in HEK293 cells transfected with hCB1; test compound added before EC75-80 of agonist CP55,940 (100 nM); type: cell-based; settings: βArrestin2 (+GRK2) BRET biosensor, vs CP55,940 100 nM (EC75-80), read-out: CB1 wt βarr2 IC50
Experimental: as §1, §2, §3
ii) The multimolecular β-arrestin membrane recruitment biosensors allow for real-time spatio-temporal monitoring of β-arrestin 1 and β-arrestin 2 following GPCR activation. Specifically, these β-arrestin sensors were designed to detect the recruitment of proteins to the plasma membrane (β-arrestin PM) with localization to compartment resulting in an increased BRET signal.
as §4, §5, §6, §7

T1 sequence (P21554 whole entry): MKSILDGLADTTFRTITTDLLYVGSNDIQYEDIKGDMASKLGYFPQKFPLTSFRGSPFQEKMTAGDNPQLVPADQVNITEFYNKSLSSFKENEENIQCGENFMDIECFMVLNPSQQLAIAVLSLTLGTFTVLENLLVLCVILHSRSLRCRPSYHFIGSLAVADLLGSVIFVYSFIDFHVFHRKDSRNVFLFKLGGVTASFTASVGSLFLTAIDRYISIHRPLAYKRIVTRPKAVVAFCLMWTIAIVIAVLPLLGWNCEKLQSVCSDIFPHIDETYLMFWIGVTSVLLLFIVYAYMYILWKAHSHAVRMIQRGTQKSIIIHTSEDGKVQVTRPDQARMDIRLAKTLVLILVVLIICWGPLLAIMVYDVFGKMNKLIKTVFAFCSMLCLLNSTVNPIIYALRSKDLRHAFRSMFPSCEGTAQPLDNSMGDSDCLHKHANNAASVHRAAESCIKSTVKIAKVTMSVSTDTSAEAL

Row | Compound | IC50 [1] | IC50 [2]
1 | COCCOc1nc(N2CCC(C)(C(N)=O)CC2)c2nc(-c3ccccc3Cl)n(-c3ccc(Cl)cc3)c2n1 [Compound 10, 1-[8-(2-chlorophenyl)-9-(4-chlorophenyl)-2-(2-methoxyethoxy)purin-6-yl]-4-methyl-piperidine-4-carboxamide] | 1.47 nM | 6.8 nM
2 | CC1(C(N)=O)CCN(c2nc(NCCS(C)(=O)=O)nc3c2nc(-c2ccccc2Cl)n3-c2ccc(Cl)cc2)CC1 [Compound 11, 1-[8-(2-chlorophenyl)-9-(4-chlorophenyl)-2-(2-methylsulfonylethylamino)purin-6-yl]-4-methyl-piperidine-4-carboxamide] | 2.01 nM | 30.1 nM
3 | CC1(C(N)=O)CCN(c2nc(N3CCC[C@@H]3CO)nc3c2nc(-c2ccccc2Cl)n3-c2ccc(Cl)cc2)CC1 [Compound 13, 1-[8-(2-chlorophenyl)-9-(4-chlorophenyl)-2-[(2R)-2-(hydroxymethyl)pyrrolidin-1-yl]purin-6-yl]-4-methyl-piperidine-4-carboxamide] | 7.02 nM | > 5000 nM
4 | CC1(C(N)=O)CCN(c2nc(N3C[C@H]4CCC[C@H]4C3)nc3c2nc(-c2ccccc2Cl)n3-c2ccc(Cl)cc2)CC1 [Compound 14, 1-[2-[(3aS,6aR)-3,3a,4,5,6,6a-hexahydro-1H-cyclopenta[c]pyrrol-2-yl]-8-(2-chlorophenyl)-9-(4-chlorophenyl)purin-6-yl]-4-methyl-piperidine-4-carboxamide] | 6.5 nM | 34.5 nM
5 | CC1(C(N)=O)CCN(c2nc(N3C[C@H]4C[C@H]4C3)nc3c2nc(-c2ccccc2Cl)n3-c2ccc(Cl)cc2)CC1 [Compound 15, 1-[2-[(1R,5S)-3-azabicyclo[3.1.0]hexan-3-yl]-8-(2-chlorophenyl)-9-(4-chlorophenyl)purin-6-yl]-4-methyl-piperidine-4-carboxamide] | 1.29 nM | 8.03 nM
6 | CC(=O)NC(=N)Nc1nc(N2CCC(C)(C(N)=O)CC2)c2nc(-c3ccccc3Cl)n(-c3ccc(Cl)cc3)c2n1 [Compound 18, 1-[2-[(N-acetylcarbamimidoyl)amino]-8-(2-chlorophenyl)-9-(4-chlorophenyl)purin-6-yl]-4-methyl-piperidine-4-carboxamide] | 3.73 nM | 11.3 nM
7 | Cc1cnn(-c2nc(N3CCC(C(F)(F)F)CC3)c3nc(-c4ccccc4Cl)n(-c4ccc(Cl)cc4)c3n2)c1 [Compound 21, 8-(2-chlorophenyl)-9-(4-chlorophenyl)-2-(4-methylpyrazol-1-yl)-6-[4-(trifluoromethyl)-1-piperidyl]purine] | 4.37 nM | 28.9 nM
8 | Cc1ccn(-c2nc(N3CCC(C(F)(F)F)CC3)c3nc(-c4ccccc4Cl)n(-c4ccc(Cl)cc4)c3n2)n1 [Compound 22, 8-(2-chlorophenyl)-9-(4-chlorophenyl)-2-(3-methylpyrazol-1-yl)-6-[4-(trifluoromethyl)-1-piperidyl]purine] | 1.33 nM | 11.3 nM
9 | COCCOc1nc(N2CCC(C(F)(F)F)CC2)c2nc(-c3ccccc3Cl)n(-c3ccc(Cl)cc3)c2n1 [Compound 27, 8-(2-chlorophenyl)-9-(4-chlorophenyl)-2-(2-methoxyethoxy)-6-[4-(trifluoromethyl)-1-piperidyl]purine] | 1.5 nM | 10.2 nM
10 | OC[C@H]1CCCN1c1nc(N2CCC(C(F)(F)F)CC2)c2nc(-c3ccccc3Cl)n(-c3ccc(Cl)cc3)c2n1 [Compound 29, [(2R)-1-[8-(2-chlorophenyl)-9-(4-chlorophenyl)-6-[4-(trifluoromethyl)-1-piperidyl]purin-2-yl]pyrrolidin-2-yl]methanol] | 6.92 nM | > 5000 nM
11 | FC(F)(F)C1CCN(c2nc(N3C[C@H]4CCC[C@H]4C3)nc3c2nc(-c2ccccc2Cl)n3-c2ccc(Cl)cc2)CC1 [Compound 30, 2-[(3aS,6aR)-3,3a,4,5,6,6a-hexahydro-1H-cyclopenta[c]pyrrol-2-yl]-8-(2-chlorophenyl)-9-(4-chlorophenyl)-6-[4-(trifluoromethyl)-1-piperidyl]purine] | 14.4 nM | 60 nM
12 | FC(F)(F)C1CCN(c2nc(N3C[C@H]4C[C@H]4C3)nc3c2nc(-c2ccccc2Cl)n3-c2ccc(Cl)cc2)CC1 [Compound 31, 2-[(1R,5S)-3-azabicyclo[3.1.0]hexan-3-yl]-8-(2-chlorophenyl)-9-(4-chlorophenyl)-6-[4-(trifluoromethyl)-1-piperidyl]purine] | 2.76 nM | 21.8 nM

The next compounds have a lower IC50 [1] than those just listed; values first:

Row | IC50 [1] | IC50 [2] | Compound
13 | 0.5 nM | 3.09 nM | CC1(C(N)=O)CCN(c2nc(N(CCO)Cc3ccccc3)nc3c2nc(-c2ccccc2Cl)n3-c2ccc(Cl)cc2)CC1 [Compound 12, 1-[2-[benzyl(2-hydroxyethyl)amino]-8-(2-chlorophenyl)-9-(4-chlorophenyl)purin-6-yl]-4-methyl-piperidine-4-carboxamide]
14 | 0.315 nM | 1.51 nM | CC1(C(N)=O)CCN(c2nc(N3CCS(=O)(=O)CC3)nc3c2nc(-c2ccccc2Cl)n3-c2ccc(Cl)cc2)CC1 [Compound 16, 1-[8-(2-chlorophenyl)-9-(4-chlorophenyl)-2-(1,1-dioxo-1,4-thiazinan-4-yl)purin-6-yl]-4-methyl-piperidine-4-carboxamide]
15 | 0.617 nM | 2.39 nM | CC1(C(N)=O)CCN(c2nc(OC3CCCOC3)nc3c2nc(-c2ccccc2Cl)n3-c2ccc(Cl)cc2)CC1 (stereo not shown) [Compound 17, 1-[8-(2-chlorophenyl)-9-(4-chlorophenyl)-2-tetrahydropyran-3-yloxy-purin-6-yl]-4-methyl-piperidine-4-carboxamide]
16 | 0.187 nM | 1.07 nM | CN(CCO)c1nc(N2CCC(C)(C(N)=O)CC2)c2nc(-c3ccccc3Cl)n(-c3ccc(Cl)cc3)c2n1 [Compound 19, 1-[8-(2-chlorophenyl)-9-(4-chlorophenyl)-2-[2-hydroxyethyl(methyl)amino]purin-6-yl]-4-methyl-piperidine-4-carboxamide]
17 | 0.255 nM | 0.568 nM | CC1(C(N)=O)CCN(c2nc(N3CCC[C@H]3CO)nc3c2nc(-c2ccccc2Cl)n3-c2ccc(Cl)cc2)CC1 [Compound 20, 1-[8-(2-chlorophenyl)-9-(4-chlorophenyl)-2-[(2S)-2-(hydroxymethyl)pyrrolidin-1-yl]purin-6-yl]-4-methyl-piperidine-4-carboxamide]
18 | 0.846 nM | 4.36 nM | OCCCOc1nc(N2CCC(C(F)(F)F)CC2)c2nc(-c3ccccc3Cl)n(-c3ccc(Cl)cc3)c2n1 [Compound 23, 3-[8-(2-chlorophenyl)-9-(4-chlorophenyl)-6-[4-(trifluoromethyl)-1-piperidyl]purin-2-yl]oxypropan-1-ol]
19 | 1.02 nM | 12.2 nM | CS(=O)(=O)CCNc1nc(N2CCC(C(F)(F)F)CC2)c2nc(-c3ccccc3Cl)n(-c3ccc(Cl)cc3)c2n1 [Compound 28, 8-(2-chlorophenyl)-9-(4-chlorophenyl)-N-(2-methylsulfonylethyl)-6-[4-(trifluoromethyl)-1-piperidyl]purin-2-amine]
20 | 0.509 nM | 3.02 nM | O=S1(=O)CCN(c2nc(N3CCC(C(F)(F)F)CC3)c3nc(-c4ccccc4Cl)n(-c4ccc(Cl)cc4)c3n2)CC1 [Compound 32, 4-[8-(2-chlorophenyl)-9-(4-chlorophenyl)-6-[4-(trifluoromethyl)-1-piperidyl]purin-2-yl]-1,4-thiazinane 1,1-dioxide]
